# Laboratory results as given in patent publication US7049289B1, “Labelled glutamine and lysine analogues” (Amersham PLC, priority 1998, dated 2006).
# The star is where a group is joined. Adamantane1carbonyl = O=C(C12CC3CC(CC(C3)C1)C2)*
# How the values were obtained:
# [1] = molecular target: T1, fibrin (in vitro human plasma clot) (Homo sapiens, UniProt P02671+P02675+P02679); test: Incorporation into human plasma clots in vitro; type: biochemical; details: for % specific uptake: % retained (with thrombin) - % retained (no thrombin); for % retained (no thrombin): control without thrombin and calcium chloride (non-specific binding); for % retained (with thrombin): human plasma clot, 60 minutes, ca. 20° C.
# T1 construct: about 400 μl of human plasma containing the radiolabelled substrate; from tissue; host or cells: human plasma, clotted in vitro with added thrombin and calcium chloride
# T1 sequence (P02671 20-644 isoform P02671-2 limits assumed): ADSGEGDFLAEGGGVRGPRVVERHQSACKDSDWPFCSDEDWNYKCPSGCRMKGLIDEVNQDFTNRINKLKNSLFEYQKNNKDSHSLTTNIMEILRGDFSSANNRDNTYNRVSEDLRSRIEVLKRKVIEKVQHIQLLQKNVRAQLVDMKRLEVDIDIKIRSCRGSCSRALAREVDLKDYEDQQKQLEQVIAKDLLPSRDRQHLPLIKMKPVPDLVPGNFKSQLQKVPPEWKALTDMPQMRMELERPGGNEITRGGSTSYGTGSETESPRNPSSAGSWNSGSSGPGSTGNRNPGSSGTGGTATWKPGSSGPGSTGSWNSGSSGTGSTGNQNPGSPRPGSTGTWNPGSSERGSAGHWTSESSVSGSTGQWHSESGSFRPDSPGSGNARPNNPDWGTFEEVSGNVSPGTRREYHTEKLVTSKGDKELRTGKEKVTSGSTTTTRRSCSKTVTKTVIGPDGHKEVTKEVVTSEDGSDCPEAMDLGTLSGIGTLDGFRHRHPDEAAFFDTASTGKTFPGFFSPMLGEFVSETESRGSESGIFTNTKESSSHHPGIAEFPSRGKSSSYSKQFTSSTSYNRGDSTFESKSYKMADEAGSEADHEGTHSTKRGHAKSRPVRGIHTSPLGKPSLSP
# T1 sequence (P02675 45-491 limits assumed): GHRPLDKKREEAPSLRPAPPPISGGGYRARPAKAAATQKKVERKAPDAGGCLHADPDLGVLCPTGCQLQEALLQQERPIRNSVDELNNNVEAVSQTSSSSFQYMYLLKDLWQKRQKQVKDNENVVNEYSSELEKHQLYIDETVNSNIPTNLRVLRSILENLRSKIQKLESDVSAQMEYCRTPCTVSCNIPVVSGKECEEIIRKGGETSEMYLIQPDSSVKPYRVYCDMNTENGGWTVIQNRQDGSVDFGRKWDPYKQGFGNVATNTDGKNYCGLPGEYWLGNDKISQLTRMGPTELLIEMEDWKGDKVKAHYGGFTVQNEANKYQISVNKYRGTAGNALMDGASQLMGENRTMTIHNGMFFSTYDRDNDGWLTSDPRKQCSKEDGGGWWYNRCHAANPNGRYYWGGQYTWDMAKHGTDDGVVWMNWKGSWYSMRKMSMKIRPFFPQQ
# T1 sequence (P02679 27-437 isoform P02679-2 limits assumed): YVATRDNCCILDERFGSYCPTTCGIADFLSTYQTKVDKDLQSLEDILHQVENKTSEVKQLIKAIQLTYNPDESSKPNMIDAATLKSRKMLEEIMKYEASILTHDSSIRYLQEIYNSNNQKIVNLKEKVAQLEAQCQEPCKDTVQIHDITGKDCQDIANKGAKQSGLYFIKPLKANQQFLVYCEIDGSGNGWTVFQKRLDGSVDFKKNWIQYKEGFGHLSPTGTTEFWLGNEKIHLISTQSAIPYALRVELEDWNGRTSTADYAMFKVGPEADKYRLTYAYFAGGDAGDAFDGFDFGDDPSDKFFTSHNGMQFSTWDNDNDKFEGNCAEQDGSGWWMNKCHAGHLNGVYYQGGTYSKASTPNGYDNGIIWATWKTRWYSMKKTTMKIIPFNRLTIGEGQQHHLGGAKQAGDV
# Method: Incorporation of radiolabelled substrates into fibrin was investigated by induction of an in vitro human plasma clot in the following manner. To a siliconised 5 ml glass vial was added, (a) 800 μl of Tris(hydroxymethyl)aminomethane buffered saline pH 7.5 containing calcium chloride (50 mM Tris, 150 mM sodium chloride, 4 mM calcium chloride.), (b) about 40 μl of physiological salt solution containing 100 units of thrombin per ml, (c) about 400 μl of human plasma containing the radiolabelled substrate at a concentration of typically 10 kBq/ml. To aid induction of clot a roughened glass rod was added to the reaction vial. Control vials were prepared similarly but with the omission of thrombin and calcium chloride.
# After incubation of the test solution at ambient laboratory temperature (ca. 20° C.) for 60 minutes the reaction was discontinued with the addition of about 400 μl of a cold solution of 33.5 mM ethylenediaminetetra-acetic acid disodium salt. Clots were separated from serum by vacuum filtration onto […] nitrocellulose filters (pre-soaked in 1.5% BSA/tris(hydroxymethyl)aminoethae buffered saline pH 7.5 containing 0.1% Tween 20) and washed with about 2×10 ml of tris(hydroxymethyl)aminomethane buffered saline pH 7.5 containing Tween 20 to a final concentration of 0.1% v/v. The proportion of total radioactivity was calculated by counting in suitable detection apparatus.
# The fraction of radioactivity retained on the filter, after subtraction of the non-specific binding determined from the control, is a measure of incorporation into the filtered clots.
# [2] = Incorporation into clots induced in a rat model (rat inferior vena cava model); type: in vivo, rat (Male Wistar); details: for % id/g (clot) / Rel. Conc. (cpm/g of clot by dose/g animal): sacrificed after 60 min
# Method: The rats (Male Wistar, 250–350 g) were anaesthetised with 15% urethane. After laparotomy, the vena cava was isolated and freed of surrounding fat tissue. […] The compounds were injected 5 min (fresh clot) and 60 min (aged clot) post-induction. After 60 min the animals were sacrificed and the clot removed, weighed and counted. Other tissues e.g. blood, lung, heart, were also dissected and counted. The uptake of tracer into the clot was determined as the relative concentration (cpm/g of clot by dose/g animal) and clot to background tissue.
# [3] = Aged Clots: injected 60 min post-induction
# [4] = Fresh Clots: injected 5 min post-induction
% specific uptake [1],% retained (no thrombin) [1],% retained (with thrombin) [1],in vitro clot uptake (in words) ([1]; in vitro clot),Substance,Clot/blood ([2]; Aged Clots),Clot/heart ([2]; Aged Clots),Clot/liver ([2]; Aged Clots),Clot/lung ([2]; Aged Clots),"% id/g (clot) [2, 3]","Rel. Conc. (cpm/g of clot by dose/g animal) [2, 3]",Clot/blood ([2]; Fresh Clots),Clot/heart ([2]; Fresh Clots),Clot/liver ([2]; Fresh Clots),Clot/lung ([2]; Fresh Clots),"% id/g (clot) [2, 4]","Rel. Conc. (cpm/g of clot by dose/g animal) [2, 4]"
62.4%,2.6%,65.0%,–,Ac-NQEQVSP-Nal(2)-TLLKG-Pn216 [^99mTc-Cmpd 20],10,36,23,14,1.7 ± 0.5 % id/g,4.9 ± 1.4,12,30,18,11,2.3 ± 0.6 % id/g,6.5 ± 1.3
48.0%,0.2%,48.2%,–,Ac-NQEQVSPLTLLKG-Pn216 (also: 99mTc complex) [^99mTc-Cmpd 19],14,13,6,5,3.2 ± 2.3 % id/g,9.1 ± 7.1,3,29,17,7,2.5 ± 0.3 % id/g,7.1 ± 1.2
41.9%,0.2%,42.1%,–,Ac-NQEQVSPYTLL(D-K)G-Pn216 [^99mTc-Cmpd 28],17,3,1,2,4.5 ± 1.1 % id/g,13.1 ± 3.4,13,31,35,19,3.5 ± 2.0 % id/g,9.7 ± 5.0
37.4%,7.1%,44.5%,–,Ac-NQEQVSPYTLLKG-(PEG)10k-Pn216 (Ac-NQEQVSPYTLLKG-{PEG 10k-Pn216}; also: 99mTc complex) [^99mTc-Cmpd 41],1,13,4,6,0.4 ± 0.1 % id/g,1.1 ± 0.3,3,6,8,4,0.7 ± 0.1 % id/g,2.2 ± 0.3
38.4%,0.2%,38.6%,–,Ac-NQEQVSPYTLLKG-NH2 [^123I-Cmpd 2],24,23,20,12,5.5 ± 1.7 % id/g,14.5 ± 3.9,7,19,21,10,4.9 ± 0.8 % id/g,14.5 ± 2.2
55.2%,0.4%,55.6%,–,Ac-NQQQVSPYTLLKG-Pn216 (also: 99mTc complex) [^99mTc-Cmpd 15],3,1,–,0.6,3.4 ± 0.6 % id/g,7.6 ± 1.6,4,12,11,6,3.6 ± 1.0 % id/g,8.3 ± 2.2
5.4%,0.1%,5.5%,significant reduction in uptake,Ac-N—CH2NH2-QEQVSP(D-Y)TLL(D-K)G-Pn216 [^99mTc-Cmpd 34],3,–,6,–,0.4 ± 0.1 % id/g,1.4 ± 0.4,2,6,8,3,0.5 ± 0.2 % id/g,1.8 ± 0.5
66.9%,1.2%,68.1%,–,Adamantoyl-NQEQVSPYTLLKG-Pn216 (Adamantane1carbonyl-NQEQVSPYTLLKG-Pn216; also: 99mTc complex) [^99mTc-Cmpd 11],5,13,4,6,0.4 ± 0.3 % id/g,1.2 ± 0.8,10,24,11,11,1.1 ± 0.4 % id/g,3.3 ± 1.1
13.8%,0.3%,14.1%,–,"Cyclo-[NQEQVSPYTLLKG] (cyclo(NQEQVSPYTLLKG); also: 123I label, place not given here) [^123I-Cmpd 44]",0.9,1,1,2,0.5 ± 0.03 % id/g,1.2 ± 0.1,0.9,1,2,1.5,0.4 ± 0.1 % id/g,1.1 ± 0.2
55.1%,8.2%,63.3%,–,Fmoc-NQEQVSP(I-Y)TLLKG-Pn216 [^99mTc-Cmpd 26],7,31,54,12,4.0 ± 0.9 % id/g,12.9 ± 3.5,16,38,16,11,14.1 ± 10 % id/g,41.4 ± 28
